{"source": "patent US11760773B2", "about": "“Small molecule drug conjugates of gemcitabine monophosphate” (MaveriX Oncology, Inc., priority 2018, dated 2023)", "key": {"[1]": {"experiment": "Comparative dog plasma PK of Int 1-4 versus gemcitabine (study k)", "assay_type": "in vivo", "conditions": "male beagle dog", "protocol": "Objectives: to compare the plasma pharmacokinetics and stability of Int-4 in plasma following single intravenous infusion administration of Int 1-4 at 5 mg/kg and 10 mg/kg versus gemcitabine at 5 mg/kg in the male Beagle dog"}, "[2]": {"experiment": "Comparative plasma PK of Int 1-4 versus gemcitabine in mouse (study a)", "assay_type": "in vivo", "conditions": "CD-1 mice; for AUC0-inf/AUC0-last / AUC0-last / AUC(0-inf) / Cmax / MRT0-inf / MRT0-last / T1/2 / Tmax: plasma"}, "[3]": {"experiment": "Int 1-4 plasma PK in the male cynomolgus monkey (study f)", "assay_type": "in vivo", "protocol": "Objectives: to compare the plasma pharmacokinetics and stability of Int 1-4 in plasma following single intravenous infusion administration of Int 1-4 at 5 mg/kg and 10 mg/kg in the male cynomolgus monkey\nPK measurements: compare PK parameters C0, CL, Vdss, Cmax, tmax, t, AUC(0-t), AUC(0-inf), MRT(0-t), MRT(0-inf) for Int 1-4"}, "[4]": {"experiment": "Int 1-4 and gemcitabine comparative PK in male cynomolgus monkey (study g)", "assay_type": "in vivo", "conditions": "plasma, male cynomolgus monkey", "protocol": "Objectives: to compare the plasma pharmacokinetics and stability of Int 1-4 versus gemcitabine in plasma following single intravenous infusion administration of Int 1-4 at 5 mg/kg and 10 mg/kg with equimolar gemcitabine at 2.65 mg/kg and 5.29 mg/kg in male cynomolgous monkeys\nPK measurements: compare PK parameters C0, CL, Vdss, Cmax, tmax, t1/2, AUC(0-t), AUC(0-inf), MRT(0-t), MRT(0-inf) for Int 1-4 with gemcitabine"}, "[5]": {"experiment": "Int 1-4 dog plasma PK (study j)", "assay_type": "in vivo", "conditions": "male beagle dog", "protocol": "Objectives: to compare the plasma pharmacokinetics and stability of Int 1-4 in plasma following single intravenous infusion administration of t 1-4 at 10 mg/kg and 20 mg/kg in the male Beagle dog."}, "[6]": {"experiment": "Comparative PK of Int 1-4 versus gemcitabine in rat plasma (study i)", "assay_type": "in vivo, Sprague-Dawley rats", "conditions": "plasma, Sprague-Dawley rat", "description": "PK measurements: compare PK parameters C0, CL, Vdss, Cmax, tmax, t1/2, AUC(0-t), AUC(0-inf), MRT(0-t), MRT(0-inf) for Int 1-4 and gemcitabine."}, "[7]": {"conditions": "after iv Int 1-4 5 mg/kg (study k)"}, "[8]": {"conditions": "after iv Int 1-4 10 mg/kg (study k)"}, "[9]": {"conditions": "after iv gemcitabine 5.29 mg/kg"}, "[10]": {"conditions": "after iv Int 1-4 5 mg/kg (study f)"}, "[11]": {"conditions": "after iv Int 1-4 10 mg/kg (study f)"}, "[12]": {"conditions": "after iv Int 1-4 5 mg/kg (study g)"}, "[13]": {"conditions": "after iv Int 1-4 10 mg/kg (study g)"}, "[14]": {"conditions": "after iv gemcitabine 2.65 mg/kg"}, "[15]": {"conditions": "after iv Int 1-4 10 mg/kg (study j)"}, "[16]": {"conditions": "after iv Int 1-4 20 mg/kg (study j)"}, "[17]": {"conditions": "after iv gemcitabine 4.47 mg/kg"}}}
{"smiles": "O=c1ccn(C2OC(CO)C(O)C2(F)F)c(=O)[nH]1", "note": "(centres unmarked) [dFdU]", "values": [{"measurement": "AUC0-last", "setting": "[1]; [7]", "result": 9.863, "unit": "µg·h/mL"}, {"measurement": "AUC(0-inf)", "setting": "[1]; [7]", "result": 13.743, "unit": "µg·h/mL"}, {"measurement": "Cmax", "setting": "[1]; [7]", "result": 0.715, "unit": "µg/mL"}, {"measurement": "MRT0-inf", "setting": "[1]; [7]", "result": 18.22, "unit": "h"}, {"measurement": "MRT0-last", "setting": "[1]; [7]", "result": 9.89, "unit": "h"}, {"measurement": "Tmax", "setting": "[1]; [7]", "result": 4.00, "unit": "h"}, {"measurement": "t1/2", "setting": "[1]; [7]", "result": 11.79, "unit": "h"}, {"measurement": "AUC0-last", "setting": "[1]; [8]", "result": 11.7, "unit": "µg·h/mL"}, {"measurement": "AUC(0-inf)", "setting": "[1]; [8]", "result": 13.8, "unit": "µg·h/mL"}, {"measurement": "Cmax", "setting": "[1]; [8]", "result": 0.936, "unit": "µg/mL"}, {"measurement": "MRT0-inf", "setting": "[1]; [8]", "result": 12.99, "unit": "h"}, {"measurement": "MRT0-last", "setting": "[1]; [8]", "result": 8.94, "unit": "h"}, {"measurement": "Tmax", "setting": "[1]; [8]", "result": 2.00, "unit": "h"}, {"measurement": "t1/2", "setting": "[1]; [8]", "result": 8.40, "unit": "h"}, {"measurement": "AUC0-last", "setting": "[1]; [9]", "result": 20.133, "unit": "µg·h/mL"}, {"measurement": "AUC(0-inf)", "setting": "[1]; [9]", "result": 23.967, "unit": "µg·h/mL"}, {"measurement": "Cmax", "setting": "[1]; [9]", "result": 1.813, "unit": "µg/mL"}, {"measurement": "MRT0-inf", "setting": "[1]; [9]", "result": 13.31, "unit": "h"}, {"measurement": "MRT0-last", "setting": "[1]; [9]", "result": 8.71, "unit": "h"}, {"measurement": "Tmax", "setting": "[1]; [9]", "result": 3.00, "unit": "h"}, {"measurement": "plasma levels of dFdU higher than gemcitabine, based on the ratios of AUC0-last", "setting": "[2]; [9]", "result": "~500", "unit": "%"}, {"measurement": "AUC0-inf/AUC0-last", "setting": "[2]; after iv Int 1-4 9.4 mg/kg", "result": 120, "unit": "%"}, {"measurement": "AUC0-last", "setting": "[2]; after iv Int 1-4 9.4 mg/kg", "result": 1.039, "unit": "µg·h/mL"}, {"measurement": "AUC(0-inf)", "setting": "[2]; after iv Int 1-4 9.4 mg/kg", "result": 1.44, "unit": "µg·h/mL"}, {"measurement": "Cmax", "setting": "[2]; after iv Int 1-4 9.4 mg/kg", "result": 0.253, "unit": "µg/mL"}, {"measurement": "MRT0-inf", "setting": "[2]; after iv Int 1-4 9.4 mg/kg", "result": 4.65, "unit": "h"}, {"measurement": "MRT0-last", "setting": "[2]; after iv Int 1-4 9.4 mg/kg", "result": 2.73, "unit": "h"}, {"measurement": "T1/2", "setting": "[2]; after iv Int 1-4 9.4 mg/kg", "result": 3.08, "unit": "h"}, {"measurement": "Tmax", "setting": "[2]; after iv Int 1-4 9.4 mg/kg", "result": 1.00, "unit": "h"}, {"measurement": "AUC0-inf/AUC0-last", "setting": "[2]; [9]", "result": 111, "unit": "%"}, {"measurement": "AUC0-last", "setting": "[2]; [9]", "result": 6.827, "unit": "µg·h/mL"}, {"measurement": "AUC(0-inf)", "setting": "[2]; [9]", "result": 8.187, "unit": "µg·h/mL"}, {"measurement": "Cmax", "setting": "[2]; [9]", "result": 1.6, "unit": "µg/mL"}, {"measurement": "MRT0-inf", "setting": "[2]; [9]", "result": 3.49, "unit": "h"}, {"measurement": "MRT0-last", "setting": "[2]; [9]", "result": 2.56, "unit": "h"}, {"measurement": "T1/2", "setting": "[2]; [9]", "result": 2.23, "unit": "h"}, {"measurement": "Tmax", "setting": "[2]; [9]", "result": 0.667, "unit": "h"}, {"measurement": "C0", "setting": "[3]; [10]", "result": 0.296, "unit": "µg/mL"}, {"measurement": "MRT0-last", "setting": "[3]; [10]", "result": 30.60, "unit": "h"}, {"measurement": "t1/2", "setting": "[3]; [10]", "result": 0.67, "unit": "h"}, {"measurement": "C0", "setting": "[3]; [11]", "result": 0.747, "unit": "µg/mL"}, {"measurement": "MRT0-last", "setting": "[3]; [11]", "result": 63.00, "unit": "h"}, {"measurement": "t1/2", "setting": "[3]; [11]", "result": 0.75, "unit": "h"}, {"measurement": "AUC0-last", "setting": "[4]; [12]", "result": 4.117, "unit": "µg·h/mL"}, {"measurement": "AUC(0-inf)", "setting": "[4]; [12]", "result": 5.555, "unit": "µg·h/mL"}, {"measurement": "Cmax", "setting": "[4]; [12]", "result": 0.302, "unit": "µg/mL"}, {"measurement": "MRT0-inf", "setting": "[4]; [12]", "result": 24.01, "unit": "h"}, {"measurement": "MRT0-last", "setting": "[4]; [12]", "result": 10.31, "unit": "h"}, {"measurement": "Tmax", "setting": "[4]; [12]", "result": 1.69, "unit": "h"}, {"measurement": "t1/2", "setting": "[4]; [12]", "result": 16.86, "unit": "h"}, {"measurement": "AUC0-last", "setting": "[4]; [13]", "result": 5.12, "unit": "µg·h/mL"}, {"measurement": "AUC(0-inf)", "setting": "[4]; [13]", "result": 7.903, "unit": "µg·h/mL"}, {"measurement": "Cmax", "setting": "[4]; [13]", "result": 0.595, "unit": "µg/mL"}, {"measurement": "MRT0-inf", "setting": "[4]; [13]", "result": 18.02, "unit": "h"}, {"measurement": "MRT0-last", "setting": "[4]; [13]", "result": 8.30, "unit": "h"}, {"measurement": "Tmax", "setting": "[4]; [13]", "result": 0.67, "unit": "h"}, {"measurement": "t1/2", "setting": "[4]; [13]", "result": 12.87, "unit": "h"}, {"measurement": "AUC0-last", "setting": "[4]; [14]", "result": 7.703, "unit": "µg·h/mL"}, {"measurement": "AUC(0-inf)", "setting": "[4]; [14]", "result": 8.837, "unit": "µg·h/mL"}, {"measurement": "Cmax", "setting": "[4]; [14]", "result": 1.973, "unit": "µg/mL"}, {"measurement": "MRT0-inf", "setting": "[4]; [14]", "result": 9.35, "unit": "h"}, {"measurement": "MRT0-last", "setting": "[4]; [14]", "result": 6.41, "unit": "h"}, {"measurement": "Tmax", "setting": "[4]; [14]", "result": 0.09, "unit": "h"}, {"measurement": "t1/2", "setting": "[4]; [14]", "result": 5.89, "unit": "h"}, {"measurement": "AUC0-last", "setting": "[5]; [15]", "result": 13.167, "unit": "µg·h/mL"}, {"measurement": "AUC(0-inf)", "setting": "[5]; [15]", "result": 14.3, "unit": "µg·h/mL"}, {"measurement": "Cmax", "setting": "[5]; [15]", "result": 1.173, "unit": "µg/mL"}, {"measurement": "MRT0-inf", "setting": "[5]; [15]", "result": 15.33, "unit": "h"}, {"measurement": "MRT0-last", "setting": "[5]; [15]", "result": 9.20, "unit": "h"}, {"measurement": "Tmax", "setting": "[5]; [15]", "result": 3.33, "unit": "h"}, {"measurement": "t1/2", "setting": "[5]; [15]", "result": 10.0, "unit": "h"}, {"measurement": "AUC0-last", "setting": "[5]; [16]", "result": 31.267, "unit": "µg·h/mL"}, {"measurement": "AUC(0-inf)", "setting": "[5]; [16]", "result": 40.233, "unit": "µg·h/mL"}, {"measurement": "Cmax", "setting": "[5]; [16]", "result": 2.873, "unit": "µg/mL"}, {"measurement": "MRT0-inf", "setting": "[5]; [16]", "result": 15.97, "unit": "h"}, {"measurement": "MRT0-last", "setting": "[5]; [16]", "result": 9.27, "unit": "h"}, {"measurement": "Tmax", "setting": "[5]; [16]", "result": 2.00, "unit": "h"}, {"measurement": "t1/2", "setting": "[5]; [16]", "result": 10.53, "unit": "h"}, {"measurement": "AUC0-last", "setting": "[6]; after iv Int 1-4 10.0 mg/kg", "result": 0.288, "unit": "µg·h/mL"}, {"measurement": "Cmax", "setting": "[6]; after iv Int 1-4 10.0 mg/kg", "result": 0.0665, "unit": "µg/mL"}, {"measurement": "MRT0-last", "setting": "[6]; after iv Int 1-4 10.0 mg/kg", "result": 5.55, "unit": "h"}, {"measurement": "Tmax", "setting": "[6]; after iv Int 1-4 10.0 mg/kg", "result": 8.00, "unit": "h"}, {"measurement": "AUC0-last", "setting": "[6]; [17]", "result": 1.085, "unit": "µg·h/mL"}, {"measurement": "Cmax", "setting": "[6]; [17]", "result": 0.222, "unit": "µg/mL"}, {"measurement": "MRT0-last", "setting": "[6]; [17]", "result": 5.25, "unit": "h"}, {"measurement": "Tmax", "setting": "[6]; [17]", "result": 8.00, "unit": "h"}]}
